Data from US20250223262A1, “[…] OF […] REDUCED HERG ACTIVITY AND MOP BINDING” (Heinrich-Heine-Universität Düsseldorf, priority 2022, published 2025).

Tests used:
[1] = Intraperitoneal glucose tolerance test and plasma insulin (in vivo); parameters: species or system mice; details: for effect on blood glucose concentration compared to control: glucose tolerance test in vivo
Procedure: (A) n=8 mice for control and n=7 mice for Kom56, (D) n=8 mice each. (B,E) Blood glucose concentrations of mice during i.p. glucose tolerance tests with 1.5 mg/g BW glucose with or without i.p. compound administration. n=8 mice each. (C,F) AUC0-120min calculation of blood glucose concentrations of B,E. Statistical testing: (A,D) two-way ANOVA followed by Sidak's multiple comparison test. (B,C,E,F) unpaired two-sided Student's t-test. All values are shown with mean±SEM, except for glucose tolerance tests (B,E), in which all values are mean±SD.
Further, glucose tolerance tests (in vivo) were performed, if the corresponding in vitro assays were “positive”.
Glucose tolerance tests for the compounds were performed like in paragraph [0209].

[2] = molecular target: T1, hERG (potassium voltage-gated channel subfamily H member 2) (Homo sapiens, UniProt Q12809); assay: hERG channel binding assay ([3H] Dofetilide); details: human, HEK-293 cells (hERG channel binding assay), probe [3H] Dofetilide; 10 μM, [3H] Dofetilide, HEK-293 cells, 2 repetitions; read-out: hERG inhibition (% inhibition of the binding of a ligand specific for the target)
T1 construct: expressed in transfected cells; host or cells: HEK-293
Procedure: (§1) For the hERG channel binding assay, compound binding was calculated as % inhibition of the binding of a radioactively labeled ligand that is specific for the target (i.e., [3H] Dofetilide). HEK-293 cells (human embryonic kidney cells) were used for these binding assays. The compounds were tested at a concentration of 10 μM and 2 repetitions were conducted for each compound.

mouse pancreatic islets [3] = assay: Insulin secretion assay on isolated pancreatic islets (in vitro); type: cell-based; details: low (2 mM) and high glucose (20 mM), FIG. 1
Procedure: Statistical testing: two-way ANOVA followed by Sidak's multiple comparison test. All values are shown with mean±SEM.
Further, insulin secretion assays (in vitro) were performed.
Insulin secretion assays for the compounds were performed like in paragraph [0208].

mouse pancreatic islets [4] = assay: Islet cell death induced by oxidative stress (H2O2), flow cytometry; type: cell-based; details: 150 μM H2O2, 1 and 0.1 μM Kom56, 24 h, FIG. 6
Procedure: (A) Healthy control, (B) pancreatic islets incubated with 150 μM H2O2, (C) 150 μM H2O2 plus 1 μM Kom56, and (D) 150 μM H2O2 plus 0.1 μM Kom56. Analyzed by flow cytometry. Pancreatic islets were dissociated using trypsin and stained with Fixable Viability Stain 660 (FVS660). FVS660+=dead cells, FVS660-=living cells, values are shown in %.

[5] = Von Frey monofilament paw withdrawal test; type: in vivo; details: mice, i.p. administration, paw withdrawal thresholds versus PBS, FIG. 5
Excerpt: (A) Force that is needed to reach a 50% threshold, and (B) force that is needed to reach a 75% threshold in paw withdrawal. n=6 mice each. Statistical testing: (A,B) unpaired two-sided Student's t-test. All values are shown with mean±SEM.

μ-opioid (MOP) receptor = μ-opioid (MOP) receptor (Homo sapiens, UniProt P35372); assay: MOP receptor inhibition, SafetyScreen44 Panel; type: binding; details: test concentration 1.0 10^−5 M
[6] = Oral glucose tolerance test and plasma insulin (in vivo); details: mice, FIG. 3
Procedure: (B) Blood glucose concentrations of mice during oral glucose tolerance test with 1.5 mg/g BW glucose with or without p.o. compound administration. n=7 mice for control and n=8 mice for Kom56. (C) AUC0-120min calculation of blood glucose concentrations of B. Statistical testing: (A) two-way ANOVA followed by Sidak's multiple comparison test. (B,C) unpaired two-sided Student's t-test. All values are shown with mean±SEM, except for glucose tolerance test (B), in which all values are mean±SD.

mouse pancreatic islets [7] = assay: Streptozotocin-induced islet cell death; type: cell-based; details: 2 mM streptozotocin, 1 μM Kom56, 24 h, FIG. 7
Excerpt: Blue (Hoechst), nuclei; red (ethidium homodimer1), dead cells; green (calcein), viable cells. (B) Area of dead cells in mouse islets treated as described in A. n=4 islet batches each with 11-14 islets per batch for each group. Statistical testing: (B) one-way ANOVA followed by Tukey's multiple comparison test. All values are shown with mean±SEM. (A) Scale bars, 50 μm.

[8] = molecular target: T2, potassium voltage-gated channel subfamily H member 2 (hERG) (Homo sapiens, UniProt Q12809); assay: hERG channel binding assay ([3H] Dofetilide); details: SafetyScreen44 Panel, test concentration 1.0 10^−5 M
T2 construct: expressed in transfected cells; host or cells: HEK-293
Procedure: as §1

[9] = tested on: SafetyScreen44™ Panel with all 44 targets; assay: SafetyScreen44 Panel toxicological test; details: test concentration 1.0 10^−5 M
Procedure: Inhibition of potassium voltage-gated channel subfamily H member 2 (hERG) of the compounds was measured as in the SafetyScreen44™ Panel (see Example 3). The hERG channel binding assay is part of the SafetyScreen44™ Panel, but can also be conducted solely. The entire SafetyScreen44™ Panel with all 44 targets was just conducted for the three compounds as shown in [0206], for the other molecules just the hERG inhibition was measured.

Chain of μ-opioid (MOP) receptor (P35372 whole entry): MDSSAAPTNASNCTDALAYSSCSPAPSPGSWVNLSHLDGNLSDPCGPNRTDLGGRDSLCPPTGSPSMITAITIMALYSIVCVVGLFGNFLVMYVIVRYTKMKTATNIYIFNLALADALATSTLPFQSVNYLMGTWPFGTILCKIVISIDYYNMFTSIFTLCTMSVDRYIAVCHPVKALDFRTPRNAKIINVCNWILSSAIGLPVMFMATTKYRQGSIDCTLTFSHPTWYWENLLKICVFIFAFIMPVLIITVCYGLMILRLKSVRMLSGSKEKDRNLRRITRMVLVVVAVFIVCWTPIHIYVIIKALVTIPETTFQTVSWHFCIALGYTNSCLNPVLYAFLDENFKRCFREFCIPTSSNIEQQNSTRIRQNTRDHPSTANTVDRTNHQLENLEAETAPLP
T2 sequence (Q12809 whole entry): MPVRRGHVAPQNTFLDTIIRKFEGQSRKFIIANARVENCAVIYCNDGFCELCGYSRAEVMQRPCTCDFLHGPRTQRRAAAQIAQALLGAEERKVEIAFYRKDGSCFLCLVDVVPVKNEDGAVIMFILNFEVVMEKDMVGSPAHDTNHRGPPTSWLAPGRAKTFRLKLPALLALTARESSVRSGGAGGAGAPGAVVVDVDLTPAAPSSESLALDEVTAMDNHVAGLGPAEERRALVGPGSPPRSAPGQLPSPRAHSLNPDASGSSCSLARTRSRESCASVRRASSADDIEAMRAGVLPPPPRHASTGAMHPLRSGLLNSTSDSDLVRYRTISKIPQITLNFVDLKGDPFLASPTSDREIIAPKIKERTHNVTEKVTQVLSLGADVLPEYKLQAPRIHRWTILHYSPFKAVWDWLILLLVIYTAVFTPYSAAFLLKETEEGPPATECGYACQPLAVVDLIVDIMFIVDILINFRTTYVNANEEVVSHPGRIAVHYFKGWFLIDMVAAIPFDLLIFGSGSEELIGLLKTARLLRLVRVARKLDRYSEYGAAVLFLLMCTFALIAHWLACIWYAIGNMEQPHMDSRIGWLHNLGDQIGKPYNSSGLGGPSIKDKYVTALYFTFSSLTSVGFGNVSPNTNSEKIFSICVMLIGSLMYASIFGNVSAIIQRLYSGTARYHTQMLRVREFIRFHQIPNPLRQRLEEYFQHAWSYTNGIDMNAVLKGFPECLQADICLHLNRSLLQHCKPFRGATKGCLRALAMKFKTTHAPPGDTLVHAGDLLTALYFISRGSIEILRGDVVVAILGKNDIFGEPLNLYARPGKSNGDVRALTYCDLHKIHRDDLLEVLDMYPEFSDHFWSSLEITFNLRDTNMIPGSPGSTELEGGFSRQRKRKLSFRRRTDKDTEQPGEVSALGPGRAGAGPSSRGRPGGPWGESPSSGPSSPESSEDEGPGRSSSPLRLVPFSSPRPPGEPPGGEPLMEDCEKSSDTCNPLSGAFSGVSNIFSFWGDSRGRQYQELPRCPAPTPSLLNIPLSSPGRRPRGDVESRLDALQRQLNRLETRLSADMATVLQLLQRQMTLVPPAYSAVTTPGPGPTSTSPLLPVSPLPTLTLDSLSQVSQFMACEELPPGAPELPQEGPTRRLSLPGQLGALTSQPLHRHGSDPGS
T1 sequence (Q12809 whole entry): as above

Compound | effect on blood glucose concentration compared to control [1] | hERG inhibition [%] [8] [%] | inhibition at 10 µM (μ-opioid (MOP) receptor) [%] | toxicology (hits with over 50% inhibition) [9] | further results
COc1cc2c(cc1N1CC(N(C)C)C1)C[C@H]1C3CCCC[C@@]23CCN1C (stereo partly drawn) [Compound 35, 1-[(1S,9S)-4-methoxy-17-methyl-17-azatetracyclo[7.5.3.0^1,^10,0^2,^7]heptadeca-2(7),3,5-trien-5-yl]-N,N-dimethylazetidin-3-amine] | slightly positive effect |  |  |  | inhibition at 10 µM [2]: < 15%
COc1cc2c(cc1NC(=O)c1cncn1C)C[C@H]1C3CCCC[C@@]23CCN1C (stereo partly drawn) [Compound 7, N-[(1S,9S)-4-methoxy-17-methyl-17-azatetracyclo[7.5.3.0^1,^10,0^2,^7]heptadeca-2(7),3,5-trien-5-yl]-1-methyl-1H-imidazole-5-carboxamide] | significant effect | 7.9 |  |  | glucose-stimulated insulin secretion from mouse pancreatic islets (mouse pancreatic islets [3]): increases the glucose-stimulated insulin secretion; protection from cell death induced by oxidative stress (mouse pancreatic islets [4]): protects mouse pancreatic islets from cell death induced by oxidative stress; touch sensitivity during mechanical stimulation with Von Frey monofilaments [5]: reduces touch sensitivity; MOP inhibition [%] (μ-opioid (MOP) receptor): 33.7%; plasma insulin concentrations ([1]; mice, 30 min after i.p. administration together with glucose, FIG. 2): increases plasma insulin concentrations; glucose tolerance ([1]; mice, i.p. glucose tolerance test, 1.5 mg/g BW glucose, i.p. compound, FIG. 2): improves glucose tolerance; plasma insulin concentrations ([6]; 30 min after p.o. administration together with glucose): increases plasma insulin concentrations; glucose tolerance ([6]; oral glucose tolerance test, 1.5 mg/g BW glucose, p.o. compound): improves glucose tolerance; protection from streptozotocin-induced cell death (mouse pancreatic islets [7]): protects mouse pancreatic islets from streptozotocin-induced cell death
COc1ccc2c(c1)[C@]13CCCC[C@@H]1[C@H](C2)N(C)CC3 [DXM, dextromethorphan] |  | 20.9 | 85 | 6 | 
4-[(1S,9S)-4-methoxy-17-methyl-17-azatetracyclo[7.5.3.0^1,^10,0^2,^7]heptadeca-2(7),3,5-trien-5-yl]-1-methylpiperazin-2-one [Compound 36] | slightly positive effect |  |  |  | 
Br.Br.COc1cc2c(cc1-n1ccnc1)C[C@H]1[C@H]3CCCC[C@@]23CCN1C [DXM-2, (9S, 13S, 14S)-2-(1H-Imidazol-1-yl)-3-methoxy-17-methyl morphinan dihydrobromide] |  | 51.8 | 83.6 | 7 | 
